From patent US20220088016A1, “CANCER TREATMENT USING MULTI-TARGETED KINASE INHIBITOR IN COMBINATION OF PROTEIN KINASE BIOMARKERS” (ZHEJIANG CROWNMAB BIOTECH CO. LTD., priority 2019, published 2022)

What was measured:
Test in all cases: Kinase IC50 (Eurofins KinaseProfiler)
Assay type in all cases: biochemical
SLK (h) = biological target: T1, SLK (h) (Homo sapiens, UniProt Q9H2G2)
T1 construct: purchased Eurofins
Procedure: (§1) CBT-102 were tested against each of the selected kinases using the Eurofins standard KinaseProfder assays and following the relevant standard operating procedures. The required volume of the 50× stock of test compound (CBT-102) was added to the assay well, before a reaction mix containing the enzyme and substrate was added. The reaction was initiated by the addition of ATP at the selected concentration. There was no pre-incubation of the compound with the enzyme/substrate mix prior to ATP addition.
(§2) Data are handled using a custom-built in-house analysis software. Results are expressed as kinase activity remaining, as a percentage of the DMSO control. This is calculated using the following formula: […]
(§3) For IC50 determinations, data are analyzed using XLFit version 5.3 (ID Business Solutions).

EphB4 (h) = biological target: T2, EphB4 (h) (Homo sapiens, UniProt P54760)
T2 construct: purchased Eurofins (KinaseProfiler service)
Procedure: as §1, §2, §3

PKA (h) = biological target: T3, PKA (h) (Homo sapiens, UniProt P17612)
T3 construct: purchased Eurofins
Procedure: as §1, §2, §3

PDGFRα (V561D) (h) = biological target: T4, PDGFRα (V561D) (h) (Homo sapiens, UniProt P16234, V561D)
T4 construct: purchased Eurofins (KinaseProfiler service)
Procedure: as §1, §2, §3

Flt3 (h) = biological target: T5, Flt3 (h) (Homo sapiens, UniProt P36888)
T5 construct: purchased Eurofins (KinaseProfiler service)
Procedure: as §1, §2, §3

SAPK4 (h) = biological target: T6, SAPK4 (h) (Homo sapiens, UniProt O15264)
T6 construct: purchased Eurofins
Procedure: as §1, §2, §3

PrKX (h) = biological target: T7, PrKX (h) (Homo sapiens, UniProt P51817)
T7 construct: purchased Eurofins
Procedure: as §1, §2, §3

ErbB2 (h) = biological target: T8, ErbB2 (h) (Homo sapiens, UniProt P04626)
T8 construct: purchased Eurofins (KinaseProfiler service)
Procedure: as §1, §2, §3

SAPK2b (h) = biological target: T9, SAPK2b (h) (Homo sapiens, UniProt Q15759)
T9 construct: purchased Eurofins
Procedure: as §1, §2, §3

CDKL2 (h) = biological target: T10, CDKL2 (h) (Homo sapiens, UniProt Q92772)
T10 construct: purchased Eurofins (KinaseProfiler service)
Procedure: as §1, §2, §3

cKit (D816V) (h) = biological target: T11, cKit (D816V) (h) (Homo sapiens, UniProt P10721, D816V)
T11 construct: purchased Eurofins (KinaseProfiler service)
Procedure: as §1, §2, §3

RIPK2 (h) = biological target: T12, RIPK2 (h) (Homo sapiens, UniProt O43353)
T12 construct: purchased Eurofins
Procedure: as §1, §2, §3

Lck (h) = biological target: T13, Lck (h) (Homo sapiens, UniProt P06239)
T13 construct: purchased Eurofins (KinaseProfiler service)
Procedure: as §1, §2, §3

Pim-1 (h) = biological target: T14, Pim-1 (h) (Homo sapiens, UniProt P11309)
T14 construct: purchased Eurofins
Procedure: as §1, §2, §3

MLK1 (h) = biological target: T15, MLK1 (h) (Homo sapiens, UniProt P80192)
T15 construct: purchased Eurofins (KinaseProfiler service)
Procedure: as §1, §2, §3

CDK6/cyclinD3 (h) = biological target: T16, CDK6/cyclinD3 (h) (Homo sapiens, UniProt Q00534)
T16 construct: purchased Eurofins (KinaseProfiler service)
Procedure: as §1, §2, §3

KDR (h) = biological target: T17, KDR (h) (Homo sapiens, UniProt P35968)
T17 construct: purchased Eurofins (KinaseProfiler service)
Procedure: as §1, §2, §3

EphA1 (h) = biological target: T18, EphA1 (h) (Homo sapiens, UniProt P21709)
T18 construct: purchased Eurofins (KinaseProfiler service)
Procedure: as §1, §2, §3

Aurora-C (h) = biological target: T19, Aurora-C (h) (Homo sapiens, UniProt Q9UQB9)
T19 construct: purchased Eurofins
Procedure: as §1, §2, §3

Syk (h) = biological target: T20, Syk (h) (Homo sapiens, UniProt P43405)
T20 construct: purchased Eurofins
Procedure: as §1, §2, §3

c-RAF (h) = biological target: T21, c-RAF (h) (Homo sapiens, UniProt P04049)
T21 construct: purchased Eurofins (KinaseProfiler service)
Procedure: as §1, §2, §3

NEK2 (h) = biological target: T22, NEK2 (h) (Homo sapiens, UniProt P51955)
T22 construct: purchased Eurofins (KinaseProfiler service)
Procedure: as §1, §2, §3

CDK2/cyclinE (h) = biological target: T23, CDK2/cyclinE (h) (Homo sapiens, UniProt P24941)
T23 construct: purchased Eurofins (KinaseProfiler service)
Procedure: as §1, §2, §3

BRK (h) = biological target: T24, BRK (h) (Homo sapiens, UniProt Q13882)
T24 construct: purchased Eurofins
Procedure: as §1, §2, §3

Flt1 (h) = biological target: T25, Flt1 (h) (Homo sapiens, UniProt P17948)
T25 construct: purchased Eurofins (KinaseProfiler service)
Procedure: as §1, §2, §3

SGK3 (h) = biological target: T26, SGK3 (h) (Homo sapiens, UniProt Q96BR1)
T26 construct: purchased Eurofins
Procedure: as §1, §2, §3

PTK5 (h) = biological target: T27, PTK5 (h) (Homo sapiens, UniProt P42685)
T27 construct: purchased Eurofins
Procedure: as §1, §2, §3

ZAK (h) = biological target: T28, ZAK (h) (Homo sapiens, UniProt Q9NYL2)
T28 construct: purchased Eurofins
Procedure: as §1, §2, §3

TAK1 (h) = biological target: T29, TAK1 (h) (Homo sapiens, UniProt O43318)
T29 construct: purchased Eurofins
Procedure: as §1, §2, §3

MAP4K4 (h) = biological target: T30, MAP4K4 (h) (Homo sapiens, UniProt O95819)
T30 construct: purchased Eurofins (KinaseProfiler service)
Procedure: as §1, §2, §3

Tie2 (h) = biological target: T31, Tie2 (h) (Homo sapiens, UniProt Q02763)
T31 construct: purchased Eurofins
Procedure: as §1, §2, §3

Flt4 (h) = biological target: T32, Flt4 (h) (Homo sapiens, UniProt P35916)
T32 construct: purchased Eurofins (KinaseProfiler service)
Procedure: as §1, §2, §3

Wee1 (h) = biological target: T33, Wee1 (h) (Homo sapiens, UniProt P30291)
T33 construct: purchased Eurofins
Procedure: as §1, §2, §3

EGFR (h) = biological target: T34, EGFR (h) (Homo sapiens, UniProt P00533)
T34 construct: purchased Eurofins (KinaseProfiler service)
Procedure: as §1, §2, §3

TNIK (h) = biological target: T35, TNIK (h) (Homo sapiens, UniProt Q9UKE5)
T35 construct: purchased Eurofins
Procedure: as §1, §2, §3

T12 sequence (O43353 whole entry): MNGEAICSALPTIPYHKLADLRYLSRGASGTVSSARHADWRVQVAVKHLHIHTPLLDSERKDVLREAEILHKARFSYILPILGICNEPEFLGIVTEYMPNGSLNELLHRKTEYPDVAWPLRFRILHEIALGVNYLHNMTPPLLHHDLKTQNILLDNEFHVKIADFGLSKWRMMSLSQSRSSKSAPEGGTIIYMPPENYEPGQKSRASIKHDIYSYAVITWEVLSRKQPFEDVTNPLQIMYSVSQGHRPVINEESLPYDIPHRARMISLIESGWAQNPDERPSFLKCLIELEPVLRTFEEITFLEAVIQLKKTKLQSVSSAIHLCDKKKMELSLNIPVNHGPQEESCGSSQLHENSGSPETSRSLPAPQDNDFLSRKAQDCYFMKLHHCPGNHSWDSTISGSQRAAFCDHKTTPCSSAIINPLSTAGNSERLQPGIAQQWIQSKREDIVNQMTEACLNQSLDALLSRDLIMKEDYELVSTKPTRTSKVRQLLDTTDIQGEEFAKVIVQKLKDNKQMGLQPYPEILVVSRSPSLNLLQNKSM
T21 sequence (P04049 whole entry): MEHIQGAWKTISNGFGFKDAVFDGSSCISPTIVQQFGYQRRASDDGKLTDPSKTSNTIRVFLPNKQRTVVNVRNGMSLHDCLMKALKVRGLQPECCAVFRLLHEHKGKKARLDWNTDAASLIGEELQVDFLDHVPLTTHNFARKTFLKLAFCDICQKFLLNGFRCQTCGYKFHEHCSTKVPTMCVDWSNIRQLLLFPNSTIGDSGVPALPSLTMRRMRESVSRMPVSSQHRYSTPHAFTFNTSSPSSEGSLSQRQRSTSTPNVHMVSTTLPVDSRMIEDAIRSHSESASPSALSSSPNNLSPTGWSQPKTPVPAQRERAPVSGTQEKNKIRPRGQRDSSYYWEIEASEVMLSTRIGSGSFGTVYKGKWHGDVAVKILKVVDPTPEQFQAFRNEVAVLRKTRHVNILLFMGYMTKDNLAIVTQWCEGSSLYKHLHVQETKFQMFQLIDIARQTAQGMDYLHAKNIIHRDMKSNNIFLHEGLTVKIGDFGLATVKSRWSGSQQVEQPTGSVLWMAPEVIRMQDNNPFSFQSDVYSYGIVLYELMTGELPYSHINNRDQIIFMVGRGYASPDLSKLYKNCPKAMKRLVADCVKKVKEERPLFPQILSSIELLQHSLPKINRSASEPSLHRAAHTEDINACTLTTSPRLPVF
T18 sequence (P21709 26-976): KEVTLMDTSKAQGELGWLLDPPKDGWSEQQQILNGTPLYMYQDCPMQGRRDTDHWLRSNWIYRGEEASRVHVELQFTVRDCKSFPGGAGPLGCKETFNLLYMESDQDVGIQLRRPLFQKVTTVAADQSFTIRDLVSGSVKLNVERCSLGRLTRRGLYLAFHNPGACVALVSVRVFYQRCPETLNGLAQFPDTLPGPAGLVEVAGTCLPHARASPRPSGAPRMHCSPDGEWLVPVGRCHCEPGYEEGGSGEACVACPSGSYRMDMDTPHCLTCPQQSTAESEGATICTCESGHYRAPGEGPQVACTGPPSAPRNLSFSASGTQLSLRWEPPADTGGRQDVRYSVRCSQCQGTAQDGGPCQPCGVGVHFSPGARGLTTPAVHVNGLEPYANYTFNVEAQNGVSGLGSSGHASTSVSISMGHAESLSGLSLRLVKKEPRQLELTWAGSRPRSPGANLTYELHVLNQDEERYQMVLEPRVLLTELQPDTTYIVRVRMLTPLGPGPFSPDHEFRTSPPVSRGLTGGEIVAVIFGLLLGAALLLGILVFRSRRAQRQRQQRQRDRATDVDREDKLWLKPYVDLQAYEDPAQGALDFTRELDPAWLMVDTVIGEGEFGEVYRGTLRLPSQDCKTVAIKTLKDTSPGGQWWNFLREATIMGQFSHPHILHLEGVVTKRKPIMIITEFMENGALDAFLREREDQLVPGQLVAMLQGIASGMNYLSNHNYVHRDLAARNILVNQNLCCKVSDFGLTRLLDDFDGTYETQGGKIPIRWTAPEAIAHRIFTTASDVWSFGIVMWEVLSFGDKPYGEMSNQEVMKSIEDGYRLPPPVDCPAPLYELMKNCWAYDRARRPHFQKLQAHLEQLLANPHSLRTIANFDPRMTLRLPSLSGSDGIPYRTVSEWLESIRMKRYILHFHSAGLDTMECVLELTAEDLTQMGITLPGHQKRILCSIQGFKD
T9 sequence (Q15759 whole entry): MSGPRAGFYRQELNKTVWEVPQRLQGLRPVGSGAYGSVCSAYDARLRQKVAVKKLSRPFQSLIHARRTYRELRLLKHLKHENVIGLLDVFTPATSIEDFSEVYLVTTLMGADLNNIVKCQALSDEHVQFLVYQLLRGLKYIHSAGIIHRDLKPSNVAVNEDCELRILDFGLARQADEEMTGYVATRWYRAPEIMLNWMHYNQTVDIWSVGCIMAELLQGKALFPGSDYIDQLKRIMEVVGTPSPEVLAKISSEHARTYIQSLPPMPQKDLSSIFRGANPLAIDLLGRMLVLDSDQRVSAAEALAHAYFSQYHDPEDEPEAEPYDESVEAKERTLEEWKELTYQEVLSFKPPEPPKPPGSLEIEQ
T31 sequence (Q02763 23-1124): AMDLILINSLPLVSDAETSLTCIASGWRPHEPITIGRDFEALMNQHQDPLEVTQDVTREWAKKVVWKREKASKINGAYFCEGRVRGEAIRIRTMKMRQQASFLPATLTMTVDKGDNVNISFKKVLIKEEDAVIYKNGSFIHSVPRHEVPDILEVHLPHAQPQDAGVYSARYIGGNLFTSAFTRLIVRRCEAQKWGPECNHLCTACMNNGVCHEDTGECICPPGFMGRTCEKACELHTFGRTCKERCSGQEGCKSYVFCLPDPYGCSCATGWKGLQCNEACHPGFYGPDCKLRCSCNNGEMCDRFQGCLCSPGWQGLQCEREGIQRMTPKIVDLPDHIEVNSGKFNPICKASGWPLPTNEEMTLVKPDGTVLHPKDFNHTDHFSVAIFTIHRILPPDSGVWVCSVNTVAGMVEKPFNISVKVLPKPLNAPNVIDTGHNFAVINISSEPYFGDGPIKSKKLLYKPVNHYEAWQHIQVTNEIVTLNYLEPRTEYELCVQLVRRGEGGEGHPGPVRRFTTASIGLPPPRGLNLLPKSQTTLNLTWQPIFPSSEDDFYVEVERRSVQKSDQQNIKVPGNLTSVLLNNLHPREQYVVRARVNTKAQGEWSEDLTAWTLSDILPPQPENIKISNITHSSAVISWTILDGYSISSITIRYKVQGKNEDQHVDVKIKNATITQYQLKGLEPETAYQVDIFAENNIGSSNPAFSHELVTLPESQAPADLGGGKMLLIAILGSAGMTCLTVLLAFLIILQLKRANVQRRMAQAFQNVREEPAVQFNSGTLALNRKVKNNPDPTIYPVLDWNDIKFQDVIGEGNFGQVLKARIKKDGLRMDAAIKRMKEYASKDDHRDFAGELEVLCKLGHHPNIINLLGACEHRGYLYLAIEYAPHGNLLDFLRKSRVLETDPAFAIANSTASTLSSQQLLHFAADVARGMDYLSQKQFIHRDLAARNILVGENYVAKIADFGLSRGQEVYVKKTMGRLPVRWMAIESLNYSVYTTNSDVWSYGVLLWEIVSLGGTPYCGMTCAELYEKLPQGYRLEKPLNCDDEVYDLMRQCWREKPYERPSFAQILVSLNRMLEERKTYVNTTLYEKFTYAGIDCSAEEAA
T15 sequence (P80192 whole entry): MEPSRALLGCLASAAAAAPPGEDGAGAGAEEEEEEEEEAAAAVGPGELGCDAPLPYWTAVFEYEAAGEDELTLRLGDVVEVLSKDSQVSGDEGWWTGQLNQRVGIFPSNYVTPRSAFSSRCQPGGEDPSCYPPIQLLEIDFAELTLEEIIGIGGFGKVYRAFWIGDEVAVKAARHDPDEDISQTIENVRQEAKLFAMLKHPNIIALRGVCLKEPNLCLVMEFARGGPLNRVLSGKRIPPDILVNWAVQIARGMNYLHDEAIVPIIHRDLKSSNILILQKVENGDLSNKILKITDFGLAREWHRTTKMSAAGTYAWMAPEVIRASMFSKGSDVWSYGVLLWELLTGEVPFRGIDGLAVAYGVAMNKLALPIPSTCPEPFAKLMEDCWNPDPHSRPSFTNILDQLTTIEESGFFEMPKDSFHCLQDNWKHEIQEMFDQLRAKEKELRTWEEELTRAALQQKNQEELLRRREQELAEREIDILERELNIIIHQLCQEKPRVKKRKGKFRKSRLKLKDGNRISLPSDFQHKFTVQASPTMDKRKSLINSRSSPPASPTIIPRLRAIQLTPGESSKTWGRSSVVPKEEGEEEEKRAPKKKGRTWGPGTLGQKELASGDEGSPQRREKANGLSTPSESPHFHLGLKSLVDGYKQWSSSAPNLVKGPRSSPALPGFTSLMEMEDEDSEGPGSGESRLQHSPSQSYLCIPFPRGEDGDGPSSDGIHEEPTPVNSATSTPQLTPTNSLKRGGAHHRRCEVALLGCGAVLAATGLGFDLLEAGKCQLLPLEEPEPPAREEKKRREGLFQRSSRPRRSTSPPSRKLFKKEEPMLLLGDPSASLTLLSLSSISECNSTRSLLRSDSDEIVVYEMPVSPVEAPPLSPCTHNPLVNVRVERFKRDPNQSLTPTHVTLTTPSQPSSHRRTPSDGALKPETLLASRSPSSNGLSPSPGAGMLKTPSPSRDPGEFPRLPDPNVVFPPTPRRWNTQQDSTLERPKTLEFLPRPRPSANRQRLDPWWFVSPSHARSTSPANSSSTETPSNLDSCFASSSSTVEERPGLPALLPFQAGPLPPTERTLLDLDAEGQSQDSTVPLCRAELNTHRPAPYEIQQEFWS
T29 sequence (O43318 1-303 limits assumed): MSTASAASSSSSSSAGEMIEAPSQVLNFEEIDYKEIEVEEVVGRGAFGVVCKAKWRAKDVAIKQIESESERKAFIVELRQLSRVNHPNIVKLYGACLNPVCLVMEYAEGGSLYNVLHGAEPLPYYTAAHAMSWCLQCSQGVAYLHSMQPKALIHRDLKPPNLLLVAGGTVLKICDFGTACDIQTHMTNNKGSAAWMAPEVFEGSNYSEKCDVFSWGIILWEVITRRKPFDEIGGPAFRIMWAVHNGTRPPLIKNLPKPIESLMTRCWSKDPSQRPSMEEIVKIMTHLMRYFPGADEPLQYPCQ

**Q.** How did the IC50 (SLK (h)) turn out when `Cc1cc(Oc2cc(NC(=O)C3CC3)ncn2)ccc1NC(=O)Nc1ccc(Cl)c(C(F)(F)F)c1` [CBT-102] was run?
**A.** 879 nM

**Q.** What about the IC50 (EphB4 (h)) of the same compound?
**A.** 486 nM

**Q.** What about the IC50 (PKA (h)) of the same compound?
**A.** > 10000 nM

**Q.** What about the IC50 (PDGFRα (V561D) (h)) of the same compound?
**A.** 28 nM

**Q.** And the IC50 (Flt3 (h))?
**A.** 1090 nM

**Q.** And the IC50 (SAPK4 (h))?
**A.** 228 nM

**Q.** And the IC50 (PrKX (h))?
**A.** > 10000 nM

**Q.** And the IC50 (ErbB2 (h))?
**A.** > 10000 nM

**Q.** What about the IC50 (SAPK2b (h)) of the same compound?
**A.** 70 nM

**Q.** What about the IC50 (CDKL2 (h)) of the same compound?
**A.** 37 nM

**Q.** What about the IC50 (cKit (D816V) (h)) of the same compound?
**A.** > 10000 nM

**Q.** And the IC50 (RIPK2 (h))?
**A.** 107 nM

**Q.** What about the IC50 (Lck (h)) of the same compound?
**A.** 1340 nM

**Q.** What about the IC50 (Pim-1 (h)) of the same compound?
**A.** > 10000 nM

**Q.** And the IC50 (MLK1 (h))?
**A.** 6060 nM

**Q.** What about the IC50 (CDK6/cyclinD3 (h)) of the same compound?
**A.** > 10000 nM

**Q.** And the IC50 (KDR (h))?
**A.** 25 nM

**Q.** What about the IC50 (EphA1 (h)) of the same compound?
**A.** 1110 nM

**Q.** And the IC50 (Aurora-C (h))?
**A.** > 10000 nM

**Q.** And the IC50 (Syk (h))?
**A.** > 10000 nM

**Q.** What about the IC50 (c-RAF (h)) of the same compound?
**A.** 31 nM

**Q.** What about the IC50 (NEK2 (h)) of the same compound?
**A.** > 10000 nM

**Q.** And the IC50 (CDK2/cyclinE (h))?
**A.** > 10000 nM

**Q.** And the IC50 (BRK (h))?
**A.** > 10000 nM

**Q.** And the IC50 (Flt1 (h))?
**A.** 21 nM

**Q.** What about the IC50 (SGK3 (h)) of the same compound?
**A.** > 10000 nM

**Q.** And the IC50 (PTK5 (h))?
**A.** 52 nM

**Q.** What about the IC50 (ZAK (h)) of the same compound?
**A.** 26 nM

**Q.** What about the IC50 (TAK1 (h)) of the same compound?
**A.** 481 nM

**Q.** And the IC50 (MAP4K4 (h))?
**A.** 763 nM

**Q.** What about the IC50 (Tie2 (h)) of the same compound?
**A.** 242 nM

**Q.** And the IC50 (Flt4 (h))?
**A.** 8 nM

**Q.** What about the IC50 (Wee1 (h)) of the same compound?
**A.** > 10000 nM

**Q.** What about the IC50 (EGFR (h)) of the same compound?
**A.** > 10000 nM

**Q.** And the IC50 (TNIK (h))?
**A.** 113 nM
